Measurements as given in patent US20070049564A1 (Wyeth, priority 2005, published 2007).
Converted amounts (≈) assume the structure as drawn. Like-named read-outs stand apart in the source and are kept apart here.

Legend:
E. coli GC 2231 = assay: MIC, broth microdilution; conditions: Escherichia coli
E. coli GC 4559 = assay: MIC, broth microdilution; conditions: Escherichia coli
E. coli GC 2203 = assay: MIC, broth microdilution; conditions: Escherichia coli
E. faecalis GC 2267 = assay: MIC, broth microdilution; conditions: Enterococcus faecalis
P. aeruginosa GC 2214 = assay: MIC, broth microdilution; conditions: Pseudomonas aeruginosa
E. coli GC 2232 = assay: MIC, broth microdilution; conditions: Escherichia coli
E. coli GC 3226 = assay: MIC, broth microdilution; conditions: Escherichia coli
S. aureus GC 6335 = assay: MIC, broth microdilution; conditions: Staphylococcus aureus
S. aureus GC 2216 = assay: MIC, broth microdilution; conditions: Staphylococcus aureus
S. aureus GC 6467 = assay: MIC, broth microdilution; conditions: Staphylococcus aureus
E. coli GC 2235 = assay: MIC, broth microdilution; conditions: Escherichia coli
E. coli GC 2270 = assay: MIC, broth microdilution; conditions: Escherichia coli
S. pneumoniae* GC 4465 = assay: MIC, broth microdilution; conditions: Streptococcus pneumoniae
E. coli GC 4560 = assay: MIC, broth microdilution; conditions: Escherichia coli
E. faecalis GC 2242 = assay: MIC, broth microdilution; conditions: Enterococcus faecalis
E. faecium GC 4556 = assay: MIC, broth microdilution; conditions: Enterococcus faecium
Staph. aureus Smith = assay: In vivo activity (oral, iv; ED50) against Staph. aureus Smith in mice
Procedure: Representative examples of compounds of Formula I were tested for the oral efficacy using S. aureus Smith in mice.

E. coli GC 2271 = assay: MIC, broth microdilution; conditions: Escherichia coli
S. agalactiae GC 4564 = assay: MIC, broth microdilution; conditions: Streptococcus agalactiae
S. typhimurium GC 2172 = assay: MIC, broth microdilution; conditions: Salmonella enterica, TYPHIMURIUM
[1] = read-out: MINIMAL INHIBITORY CONCENTRATION MIC, pre-incubated in Mouse Serum
[2] = read-out: MINIMAL INHIBITORY CONCENTRATION MIC, pre-incubated in Water

CCCN(CC(=O)Nc1cc(N(C)C)c2c(c1O)C(=O)C1=C(O)[C@]3(O)C(=O)C(C(N)=O)=C(O)[C@@H](N(C)C)[C@@H]3C[C@@H]1C2)C(=O)OCOC(=O)c1ccsc1 [Example 27, ({[(2-{[(5aR,6aS,7S,10aS)-9-(aminocarbonyl)-4,7-bis(dimethylamino)-1,8,10a,11-tetrahydroxy-10,12-dioxo-5,5a,6,6a,7,10,10a,12-octahydrotetracen-2-yl]amino}-2-oxoethyl)(propyl)amino]carbonyl}oxy)methyl thiophene-3-carboxylate]
MIC (E. coli GC 2231; GC2231, read-out: MINIMAL INHIBITORY CONCENTRATION MIC, pre-incubated in Mouse Serum): 1 µg/mL (≈ 1.32 µM)
MIC (E. coli GC 2231; GC2231, read-out: MINIMAL INHIBITORY CONCENTRATION MIC, pre-incubated in Water): > 64 µg/mL
MIC (E. coli GC 4559; GC4559, read-out: MINIMAL INHIBITORY CONCENTRATION MIC, pre-incubated in Mouse Serum): 0.5 µg/mL (≈ 0.662 µM)
MIC (E. coli GC 4559; GC4559, read-out: MINIMAL INHIBITORY CONCENTRATION MIC, pre-incubated in Water): > 64 µg/mL
MIC (E. coli GC 2203; GC2203, read-out: MINIMAL INHIBITORY CONCENTRATION MIC, pre-incubated in Mouse Serum): 0.5 µg/mL (≈ 0.662 µM)
MIC (E. coli GC 2203; GC2203, read-out: MINIMAL INHIBITORY CONCENTRATION MIC, pre-incubated in Water): > 64 µg/mL
MIC (E. faecalis GC 2267; GC2267, read-out: MINIMAL INHIBITORY CONCENTRATION MIC, pre-incubated in Mouse Serum): 1 µg/mL (≈ 1.32 µM)
MIC (E. faecalis GC 2267; GC2267, read-out: MINIMAL INHIBITORY CONCENTRATION MIC, pre-incubated in Water): 2 µg/mL (≈ 2.65 µM)
MIC (P. aeruginosa GC 2214; GC2214, read-out: MINIMAL INHIBITORY CONCENTRATION MIC, pre-incubated in Mouse Serum): 8 µg/mL (≈ 10.6 µM)
MIC (P. aeruginosa GC 2214; GC2214, read-out: MINIMAL INHIBITORY CONCENTRATION MIC, pre-incubated in Water): > 64 µg/mL
MIC (E. coli GC 2232; GC2232, read-out: MINIMAL INHIBITORY CONCENTRATION MIC, pre-incubated in Mouse Serum): 0.5 µg/mL (≈ 0.662 µM)
MIC (E. coli GC 2232; GC2232, read-out: MINIMAL INHIBITORY CONCENTRATION MIC, pre-incubated in Water): 64 µg/mL (≈ 84.7 µM)
MIC (E. coli GC 3226; GC3226, read-out: MINIMAL INHIBITORY CONCENTRATION MIC, pre-incubated in Mouse Serum): 0.5 µg/mL (≈ 0.662 µM)
MIC (E. coli GC 3226; GC3226, read-out: MINIMAL INHIBITORY CONCENTRATION MIC, pre-incubated in Water): > 64 µg/mL
MIC (S. aureus GC 6335; GC6335, read-out: MINIMAL INHIBITORY CONCENTRATION MIC, pre-incubated in Mouse Serum): 0.25 µg/mL (≈ 0.331 µM)
MIC (S. aureus GC 6335; GC6335, read-out: MINIMAL INHIBITORY CONCENTRATION MIC, pre-incubated in Water): 0.5 µg/mL (≈ 0.662 µM)
MIC (S. aureus GC 2216; GC2216, read-out: MINIMAL INHIBITORY CONCENTRATION MIC, pre-incubated in Mouse Serum): 0.25 µg/mL (≈ 0.331 µM)
MIC (S. aureus GC 2216; GC2216, read-out: MINIMAL INHIBITORY CONCENTRATION MIC, pre-incubated in Water): 0.25 µg/mL (≈ 0.331 µM)
MIC (S. aureus GC 6467; GC6467, read-out: MINIMAL INHIBITORY CONCENTRATION MIC, pre-incubated in Mouse Serum): 2 µg/mL (≈ 2.65 µM)
MIC (S. aureus GC 6467; GC6467, read-out: MINIMAL INHIBITORY CONCENTRATION MIC, pre-incubated in Water): 2 µg/mL (≈ 2.65 µM)
MIC (E. coli GC 2235; GC2235, read-out: MINIMAL INHIBITORY CONCENTRATION MIC, pre-incubated in Mouse Serum): 0.5 µg/mL (≈ 0.662 µM)
MIC (E. coli GC 2235; GC2235, read-out: MINIMAL INHIBITORY CONCENTRATION MIC, pre-incubated in Water): 64 µg/mL (≈ 84.7 µM)
MIC (E. coli GC 2270; GC2270, read-out: MINIMAL INHIBITORY CONCENTRATION MIC, pre-incubated in Mouse Serum): 0.5 µg/mL (≈ 0.662 µM)
MIC (E. coli GC 2270; GC2270, read-out: MINIMAL INHIBITORY CONCENTRATION MIC, pre-incubated in Water): 64 µg/mL (≈ 84.7 µM)
MIC (S. pneumoniae* GC 4465; [1]): < 0.06 µg/mL
MIC (S. pneumoniae* GC 4465; [2]): < 0.06 µg/mL
MIC (E. coli GC 4560; GC4560, read-out: MINIMAL INHIBITORY CONCENTRATION MIC, pre-incubated in Mouse Serum): 0.25 µg/mL (≈ 0.331 µM)
MIC (E. coli GC 4560; GC4560, read-out: MINIMAL INHIBITORY CONCENTRATION MIC, pre-incubated in Water): 1 µg/mL (≈ 1.32 µM)
MIC (E. faecalis GC 2242; GC2242, read-out: MINIMAL INHIBITORY CONCENTRATION MIC, pre-incubated in Mouse Serum): 0.5 µg/mL (≈ 0.662 µM)
MIC (E. faecalis GC 2242; GC2242, read-out: MINIMAL INHIBITORY CONCENTRATION MIC, pre-incubated in Water): 0.5 µg/mL (≈ 0.662 µM)
MIC (E. faecium GC 4556; GC4556, read-out: MINIMAL INHIBITORY CONCENTRATION MIC, pre-incubated in Mouse Serum): 0.5 µg/mL (≈ 0.662 µM)
MIC (E. faecium GC 4556; GC4556, read-out: MINIMAL INHIBITORY CONCENTRATION MIC, pre-incubated in Water): 1 µg/mL (≈ 1.32 µM)
ED50 (Staph. aureus Smith; Staphylococcus aureus, in Mus musculus, iv, read-out: ED50 SIV (Staph aureus Smith)): 0.44 mg/kg
ED50 (Staph. aureus Smith; Staphylococcus aureus, in Mus musculus, po, read-out: ED50 SOD (Staph aureus Smith)): 3.9 mg/kg
ED50 (Staph. aureus Smith; Staphylococcus aureus, in Mus musculus, po, read-out: ED50 Staph Smith SOD): 3.9 mg/kg
ED50 (Staph. aureus Smith; iv, read-out: ED50 Staph Smith SIV): 0.44 mg/kg
MIC (E. coli GC 2271; GC2271, read-out: MINIMAL INHIBITORY CONCENTRATION MIC, pre-incubated in Mouse Serum): 0.5 µg/mL (≈ 0.662 µM)
MIC (E. coli GC 2271; GC2271, read-out: MINIMAL INHIBITORY CONCENTRATION MIC, pre-incubated in Water): 64 µg/mL (≈ 84.7 µM)
MIC (S. agalactiae GC 4564; GC4564, read-out: MINIMAL INHIBITORY CONCENTRATION MIC, pre-incubated in Mouse Serum): 0.12 µg/mL (≈ 0.159 µM)
MIC (S. agalactiae GC 4564; GC4564, read-out: MINIMAL INHIBITORY CONCENTRATION MIC, pre-incubated in Water): 0.12 µg/mL (≈ 0.159 µM)
MIC (S. typhimurium GC 2172; [1]): 4 µg/mL (≈ 5.29 µM)
MIC (S. typhimurium GC 2172; [2]): > 64 µg/mL
